24 compounds from patent publication US8901138B2, “Sulfoximine substituted quinazolines for pharmaceutical compositions” (Boehringer Ingelheim International GmbH, priority 2012, dated 2014) can be followed below.

SMILES strings stand for the structures.

T1 sequence (Q9HBH9 whole entry): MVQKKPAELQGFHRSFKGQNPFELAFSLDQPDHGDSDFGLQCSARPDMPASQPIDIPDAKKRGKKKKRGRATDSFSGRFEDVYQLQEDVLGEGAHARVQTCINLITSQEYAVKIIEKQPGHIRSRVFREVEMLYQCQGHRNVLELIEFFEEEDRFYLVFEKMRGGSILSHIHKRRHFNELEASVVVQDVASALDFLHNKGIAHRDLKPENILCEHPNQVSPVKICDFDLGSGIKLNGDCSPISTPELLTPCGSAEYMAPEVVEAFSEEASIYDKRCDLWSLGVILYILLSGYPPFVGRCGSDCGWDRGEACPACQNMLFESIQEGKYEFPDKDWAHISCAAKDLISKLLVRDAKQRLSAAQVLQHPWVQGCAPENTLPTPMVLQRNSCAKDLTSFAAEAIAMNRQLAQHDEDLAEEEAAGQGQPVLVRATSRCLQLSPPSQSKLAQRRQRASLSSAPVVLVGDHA
MNK1a, sequence (Q9BUB5 1-424 isoform Q9BUB5-2): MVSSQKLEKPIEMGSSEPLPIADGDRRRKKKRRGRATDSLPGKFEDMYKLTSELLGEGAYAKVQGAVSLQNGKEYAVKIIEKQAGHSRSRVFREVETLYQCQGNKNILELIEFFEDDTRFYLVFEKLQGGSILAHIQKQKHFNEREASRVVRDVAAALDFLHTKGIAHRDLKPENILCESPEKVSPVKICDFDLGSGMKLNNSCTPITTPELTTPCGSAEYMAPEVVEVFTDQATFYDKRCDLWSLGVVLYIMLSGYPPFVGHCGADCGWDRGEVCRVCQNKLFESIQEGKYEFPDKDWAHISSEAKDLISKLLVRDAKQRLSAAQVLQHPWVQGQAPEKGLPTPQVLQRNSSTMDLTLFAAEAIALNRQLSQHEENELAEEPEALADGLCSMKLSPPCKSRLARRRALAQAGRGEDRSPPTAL

One test concerns the target T1, MNK2a (Homo sapiens, UniProt Q9HBH9).
T1 construct: made in house
Put plainly: MNK2a in vitro kinase assay (assay 1), ADP-Glo. The test is classed as biochemical. Particulars: preactivated GST-MNK2a, 20 μM ATP, read-out: MNK2 IC50. An outline of the steps:
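Preactivated GST-MNK2a (10 nM) with eIF4E peptide (25 μM) and ATP (20 μM) in HEPES/DTT/MgCl2 buffer, 90 min at room temperature, final DMSO <3%. ADP formed read by ADP-Glo luminescence and normalised to vehicle and 20 μM reference-inhibitor controls; IC50 from dose-response curves.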
The IC50 is the concentration at which inhibition is half-maximal. Consider `CS(C)(=O)=Nc1cc(F)c2c(Nc3ccc(F)cc3O[C@@H]3CCCNC3)ncnc2c1` [Example 3.8], for which the IC50 amounted to 22 nM.

Consider `CS(C)(=O)=Nc1cc(F)c2c(Nc3ccc(F)cc3O[C@@H]3CCNC3)ncnc2c1` [Example 3.7], for which the IC50 was determined as 36 nM.

Consider `Cc1cc(N=S(C)(C)=O)cc2ncnc(Nc3ccc(F)cc3OC3(C)CC3)c12` [Example 1.28], for which the IC50 was 4 nM.

`CC(C)(C)OC(=O)N[C@H]1CC[C@H](Oc2ncccc2Nc2ncnc3cc(N=S(C)(C)=O)cc(F)c23)CC1` [Example 2.15]: the IC50 was determined as 7 nM.

Turning to `C=Cc1cc(N=S(C)(C)=O)cc2ncnc(Nc3ccc(F)cc3O[C@H]3CCOC3)c12` [Example 7.7], the IC50 amounted to 2 nM.

As to `Cc1cc(N=S(C)(C)=O)cc2ncnc(Nc3cccnc3O[C@@H]3CO[C@H]4[C@@H]3OC[C@H]4O)c12` [Example 1.9], the IC50 stood at 6 nM.

In the case of `Cc1cc(N=S(C)(C)=O)cc2ncnc(Nc3ccc(F)cc3OC3CC(O)C3(C)C)c12` (stereo not drawn) [Example 1.35], the IC50 worked out at 5 nM.

Turning to `Cc1cc(N=S2(=O)CCC2)cc2ncnc(Nc3ccc(F)cc3O[C@H]3CCOC3)c12` [Example 2.98], the IC50 came to 1 nM.

In the case of `CS(C)(=O)=Nc1cc(F)c2c(Nc3cccnc3O[C@@H]3CCOC3)ncnc2c1` [Example 2.53], the IC50 was determined as 13 nM.

As for `Cc1cc(N=S(C)(C)=O)cc2ncnc(Nc3ccc(F)cc3OC3COC3)c12` [Example 2.126], the half-inhibitory concentration (IC50) amounted to 10 nM.

`Cc1cc(N=S(C)(C)=O)cc2ncnc(Nc3cccnc3O[C@@H]3CCCNC3)c12` [Example 3.6]: the IC50 was 69 nM.

In the case of `CO[C@@H]1CO[C@H]2[C@@H]1OC[C@H]2Oc1cc(F)ccc1Nc1ncnc2cc(N=S(C)(C)=O)cc(OC(F)F)c12` [Example 1.24], the IC50 is 1 nM.

`CS(C)(=O)=Nc1cc(F)c2c(Nc3cccnc3O[C@@H]3CCCN(CCO)C3)ncnc2c1` [Example 6.11]: the IC50 came to 31 nM.

In the case of `Cc1cc(N=S(C)(C)=O)cc2ncnc(Nc3ccc(F)cc3O[C@@H]3CCCNC3)c12` [Example 3.9], the IC50 stood at 10 nM.

Consider `Cc1cc(N=S(C)(C)=O)cc2ncnc(Nc3ccc(F)cc3O[C@@H]3CO[C@@H]4OCC[C@@H]43)c12` (racemic) [Example 2.62], for which the IC50 was found to be 11 nM.

For the compound `CCO[C@@H]1CO[C@H]2[C@@H]1OC[C@H]2Oc1cc(F)ccc1Nc1ncnc2cc(N=S(C)(C)=O)cc(C)c12` [Example 2.7], the IC50 was found to be 1 nM.

`Cc1cc(N=S(C)(C)=O)cc2ncnc(Nc3ccc(F)cc3O[C@@H]3CO[C@@H]4CCC[C@@H]43)c12` [Example 2.122]: the IC50 amounted to 2 nM.

Regarding `Cc1cc(N=S(C)(C)=O)cc2ncnc(Nc3ccc(F)cc3OC3CC3)c12` [Example 7.12], the IC50 was determined as 4 nM.

With `CS(C)(=O)=Nc1cc(Cl)c2c(Nc3ccc(F)cc3O[C@H]3CC[C@H](O)CC3)ncnc2c1` [Example 1.17], the IC50 was 2 nM.

Turning to `CS(C)(=O)=Nc1cc(OC2CC2)c2c(Nc3ccc(F)cc3O[C@H]3CCOC3)ncnc2c1` [Example 1.25], the IC50 worked out at 48 nM.

`Cc1cc(N=S(C)(C)=O)cc2ncnc(Nc3ccc(F)cc3OC3(C)CCC3)c12` [Example 1.29]: the IC50 was 2 nM.

For the compound `Cc1cc(N=S(C)(C)=O)cc2ncnc(Nc3ccc(C#N)cc3OC3CCOCC3)c12` [Example 7.6], the IC50 worked out at 6 nM.

Turning to `CS(C)(=O)=Nc1cc(C(F)F)c2c(Nc3ccc(F)cc3O[C@H]3CCOC3)ncnc2c1` [Example 1.21], the IC50 turned out to be 2 nM.

In the case of `COc1cc(N=S(C)(C)=O)cc2ncnc(Nc3ccc(F)cc3O[C@@H]3CO[C@H]4[C@@H]3OC[C@H]4OC)c12` [Example 2.1], the IC50 is 1 nM.

A further test deals with MNK1a (Homo sapiens, UniProt Q9BUB5). Put plainly: MNK1 in vitro kinase assay (assay 2), Z'-LYTE. The test is classed as biochemical. Particulars: compound concentration of 1 μM. The essentials:
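Pre-activated GST-MNK1a (13.5-54 ng) with 2 μM Ser/Thr 07 FRET peptide in 50 mM HEPES pH 7.5, 10 mM MgCl2, 2 mM MnCl2, 1 mM EGTA, 1 mM DTT, 1% DMSO; 1 h kinase then 1 h development at room temperature. Coumarin/fluorescein emission ratio gives % phosphorylation; sigmoidal dose-response fit.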
What is called inhibition is the relative decrease from the control value, in per cent. Consider `CS(C)(=O)=Nc1cc(F)c2c(Nc3ccc(F)cc3O[C@@H]3CCCNC3)ncnc2c1` [Example 3.8], for which testing at 1 µM gave an inhibition of 79%.

`CS(C)(=O)=Nc1cc(F)c2c(Nc3ccc(F)cc3O[C@@H]3CCNC3)ncnc2c1` [Example 3.7] returned an inhibition at 1 µM of 81%.

`Cc1cc(N=S(C)(C)=O)cc2ncnc(Nc3ccc(F)cc3OC3(C)CC3)c12` [Example 1.28]: at 1 µM the inhibition was 89%.

For the compound `CC(C)(C)OC(=O)N[C@H]1CC[C@H](Oc2ncccc2Nc2ncnc3cc(N=S(C)(C)=O)cc(F)c23)CC1` [Example 2.15], the inhibition at 1 µM came out at 72%.

`C=Cc1cc(N=S(C)(C)=O)cc2ncnc(Nc3ccc(F)cc3O[C@H]3CCOC3)c12` [Example 7.7]: the inhibition at 1 µM came out at 97%.

`Cc1cc(N=S(C)(C)=O)cc2ncnc(Nc3cccnc3O[C@@H]3CO[C@H]4[C@@H]3OC[C@H]4O)c12` [Example 1.9] yielded an inhibition at 1 µM of 90%.

For `Cc1cc(N=S(C)(C)=O)cc2ncnc(Nc3ccc(F)cc3OC3CC(O)C3(C)C)c12` (stereo not drawn) [Example 1.35], 1 µM produced 85% inhibition.

In turn, `Cc1cc(N=S2(=O)CCC2)cc2ncnc(Nc3ccc(F)cc3O[C@H]3CCOC3)c12` [Example 2.98] displayed an inhibition at 1 µM of 95%.

For the compound `CS(C)(=O)=Nc1cc(F)c2c(Nc3cccnc3O[C@@H]3CCOC3)ncnc2c1` [Example 2.53], testing at 1 µM gave an inhibition of 94%.

The compound `Cc1cc(N=S(C)(C)=O)cc2ncnc(Nc3ccc(F)cc3OC3COC3)c12` [Example 2.126] registered an inhibition at 1 µM of 93%.

With `Cc1cc(N=S(C)(C)=O)cc2ncnc(Nc3cccnc3O[C@@H]3CCCNC3)c12` [Example 3.6], the inhibition at 1 µM was determined as 80%.

In turn, `CS(C)(=O)=Nc1cc(F)c2c(Nc3cccnc3O[C@@H]3CCCN(CCO)C3)ncnc2c1` [Example 6.11] returned an inhibition at 1 µM of 72%.

On to `Cc1cc(N=S(C)(C)=O)cc2ncnc(Nc3ccc(F)cc3O[C@@H]3CCCNC3)c12` [Example 3.9], for which the inhibition at 1 µM amounted to 89%.

As to `Cc1cc(N=S(C)(C)=O)cc2ncnc(Nc3ccc(F)cc3O[C@@H]3CO[C@@H]4OCC[C@@H]43)c12` (racemic) [Example 2.62], 1 µM produced 73% inhibition.

With `CCO[C@@H]1CO[C@H]2[C@@H]1OC[C@H]2Oc1cc(F)ccc1Nc1ncnc2cc(N=S(C)(C)=O)cc(C)c12` [Example 2.7], testing at 1 µM gave an inhibition of 98%.

Take `Cc1cc(N=S(C)(C)=O)cc2ncnc(Nc3ccc(F)cc3O[C@@H]3CO[C@@H]4CCC[C@@H]43)c12` [Example 2.122]: at 1 µM the inhibition was 98%.

In the case of `CS(C)(=O)=Nc1cc(OC2CC2)c2c(Nc3ccc(F)cc3O[C@H]3CCOC3)ncnc2c1` [Example 1.25], the inhibition at 1 µM came to 66%.

`Cc1cc(N=S(C)(C)=O)cc2ncnc(Nc3ccc(F)cc3OC3(C)CCC3)c12` [Example 1.29] displayed an inhibition at 1 µM of 92%.

Turning to `Cc1cc(N=S(C)(C)=O)cc2ncnc(Nc3ccc(C#N)cc3OC3CCOCC3)c12` [Example 7.6], the inhibition at 1 µM amounted to 99%.

The same test, now with this note: pre-activated GST-MNK1a.
In turn, `CO[C@@H]1CO[C@H]2[C@@H]1OC[C@H]2Oc1cc(F)ccc1Nc1ncnc2cc(N=S(C)(C)=O)cc(OC(F)F)c12` [Example 1.24] showed an IC50 of 18 nM.

With `Cc1cc(N=S(C)(C)=O)cc2ncnc(Nc3ccc(F)cc3OC3CC3)c12` [Example 7.12], inhibition was half-maximal at 87 nM (IC50).

On to `CS(C)(=O)=Nc1cc(Cl)c2c(Nc3ccc(F)cc3O[C@H]3CC[C@H](O)CC3)ncnc2c1` [Example 1.17], for which the IC50 worked out at 39 nM.

Take `CS(C)(=O)=Nc1cc(C(F)F)c2c(Nc3ccc(F)cc3O[C@H]3CCOC3)ncnc2c1` [Example 1.21]: the IC50 was found to be 21 nM.

In the case of `COc1cc(N=S(C)(C)=O)cc2ncnc(Nc3ccc(F)cc3O[C@@H]3CO[C@H]4[C@@H]3OC[C@H]4OC)c12` [Example 2.1], the IC50 amounted to 11 nM.
